In patent US7691833B2, “Compositions and methods for preventing sporadic neoplasia in colon” (Trustees of Dartmouth College, priority 2002, dated 2010):

Key:
[1] = Serious medical events in the randomized, placebo-controlled aspirin study; details: for Serious Bleeding, Gastrointestinal, no of subjects / Serious Bleeding, Genitourinary, no of subjects: bleeding leading to hospitalization or surgical intervention
Description: A multi-center, randomized, double-blind, placebo-controlled study was performed that examined the effects of aspirin alone as well as folate treatment combined with aspirin on the occurrence of large bowel adenomas. The study has a 3-by-2 factorial design, investigating aspirin (placebo, 81 mg/day, or 325 mg/day) and folic acid (placebo or 1 mg/day). Patients were recruited at nine centers in North America. Eligible subjects had at least one of the following: (1) one or more histologically confirmed large-bowel adenomas removed within 3 months prior to recruitment, (2) one or more histologically confirmed large-bowel adenomas removed within 16 months before recruitment and a lifetime history of 2 or more confirmed large-bowel adenomas, or (3) a histologically confirmed large-bowel adenoma at least 1 cm in diameter removed within 16 months before recruitment. […] Eligible subjects were between 21 and 80 years old, in good health, and with anticipated colonoscopic follow-up three years after the qualifying examination. Exclusion criteria included a history of a familial colorectal cancer syndrome, invasive large-bowel cancer, malabsorption syndromes, any condition potentially worsened by supplemental aspirin or folic acid, or any condition commonly treated with aspirin, non-steroidal anti-inflammatory drugs (NSAIDs), or folate (e.g., recurrent arthritis, atherosclerotic vascular disease, folic acid deficiency).
Study coordinators at each center maintained contact with the subjects on a regular basis; interval questionnaires regarding possible side effects and medical events were completed every four months by each subject.
Subjects were regularly counseled regarding avoidance of aspirin and other NSATDs. Lists of products containing aspirin, ibuprofen, or naproxen were provided, and acetaminophen was distributed for treatment of minor febrile illnesses and pain. Every four months, subjects received questionnaires regarding adherence to study treatment; use of medications, over-the-counter drugs and nutritional supplements; and occurrence of symptoms, illnesses, and hospitalizations.
The statistical analysis compared the aspirin treatment groups irrespective of folic acid treatment. Subjects who underwent a follow-up endoscopy at least one year following randomization were included in the analyses. The predefined primary statistical analysis was a 2 degree-of-freedom chi-squared test for a contingency table comparing treatment groups regarding risk of one or more new adenomas. Crude risk ratios and 95 percent confidence intervals were used to compare treatment groups to placebo. Adjusted risk ratios were obtained from log-linear models with age, gender, clinical center, number of lifetime adenomas, and duration of follow-up as covariates. […] Possible modification of treatment effects by baseline characteristics was assessed using interaction terms in the log-linear model. Counts of other clinical endpoints were compared using Fisher's exact test. To compare the effect of aspirin on different types of polyps, a logistic regression model was used with generalized estimating equations (Liang and Zeger Biometrika 1986:13-22) to account for the clustering of multiple endpoints within patients. […] Two-sided P-values <0.05 were considered statistically significant.

large bowel adenomas = assay: Randomized, double-blind, placebo-controlled study of aspirin on occurrence of large bowel adenomas; assay type: in vivo, humans; details: for Relative Crude Risk (95% CI) / Adjusted Relative Risk (95% CI): versus placebo
Excerpt: Patients were recruited at nine centers in North America.
By protocol, subjects were to have a complete surveillance colonoscopy 34-40 months after the qualifying examination. At each colonoscopy, the endoscopist recorded the estimated size and location of all polyps and mucosal lesions suspicious for neoplasia as per usual clinical practice. Each lesion was removed and examined histologically at the clinical center and by the study pathologist. Polyps were classified as neoplastic (adenomatous) or non-neoplastic (e.g., hyperplastic) by the study pathologist.
The primary study outcome was the proportion of subjects with one or more colorectal adenomas detected during the period from one year after randomization through the anticipated surveillance follow-up. If a surveillance colonoscopy was not performed during the protocol time window, the last examination at least one year after randomization was taken as the follow-up exam. Pre-specified secondary outcomes were the numbers of large-bowel adenomas and “advanced lesions”: tubulovillous adenomas (25 to 75 percent villous features), villous adenomas (>75 percent villous), large adenomas ([…]), severe dysplasia, or invasive cancer. Separate analyses were also conducted for lesions in the left colorectum (descending colon, sigmoid colon, and rectum) and right colorectum (the remainder of the bowel).

[2] = Advanced Lesion, both aspirin groups combined
[3] = Any Adenoma, both aspirin groups combined
[4] = Tubular Adenoma, both aspirin groups combined

CC(=O)Oc1ccccc1C(=O)O [Aspirin, acetylsalicylic acid]
Died, percent ([1]; 81 mg Aspirin, N = 377 (Table 2)): 0.8%
Coronary Revascularization, no of subjects ([1]; 81 mg aspirin (N = 377)): 3
Deaths, no of subjects ([1]; 81 mg aspirin (N = 377)): 3
Hospitalization, no of subjects ([1]; 81 mg aspirin (N = 377)): 61
Myocardial Infarction, no of subjects ([1]; 81 mg aspirin (N = 377)): 2
Non-Colorectal Cancer, no of subjects ([1]; 81 mg aspirin (N = 377)): 14
Stroke, no of subjects ([1]; 81 mg aspirin (N = 377)): 2
Serious Bleeding, Gastrointestinal, no of subjects ([1]; 81 mg aspirin (N = 377)): 2
Serious Bleeding, Genitourinary, no of subjects ([1]; 81 mg aspirin (N = 377)): 6
stroke judged to be hemorrhagic ([1]; 81 mg aspirin group, after review of the medical records): One
Died, percent ([1]; 325 mg Aspirin, N = 372 (Table 2)): 1.1%
Coronary Revascularization, no of subjects ([1]; 325 mg aspirin (N = 372)): 5
Deaths, no of subjects ([1]; 325 mg aspirin (N = 372)): 4
Hospitalization, no of subjects ([1]; 325 mg aspirin (N = 372)): 57
Myocardial Infarction, no of subjects ([1]; 325 mg aspirin (N = 372)): 4
Non-Colorectal Cancer, no of subjects ([1]; 325 mg aspirin (N = 372)): 9
Stroke, no of subjects ([1]; 325 mg aspirin (N = 372)): 5
Serious Bleeding, Gastrointestinal, no of subjects ([1]; 325 mg aspirin (N = 372)): 4
Serious Bleeding, Genitourinary, no of subjects ([1]; 325 mg aspirin (N = 372)): 2
Hospitalization, cancer and myocardial infarction frequency ([1]; aspirin groups versus placebo, differences compatible with chance): somewhat more frequently in the aspirin groups than in placebo
patients diagnosed with a stroke (all non-fatal) ([1]; both aspirin groups together, none in placebo): Seven
reduction in risk for advanced lesions (large bowel adenomas; 81 mg aspirin): > 40%
reduction in risk of one or more adenomas (large bowel adenomas; 81 mg aspirin): 19%
adjusted risk ratio for the detection of at least one advanced adenoma (large bowel adenomas; 81 mg aspirin, among women): 0.18
adjusted risk ratio for the detection of at least one advanced adenoma (large bowel adenomas; 81 mg aspirin, among younger subjects (younger than median age 57 years at randomization)): 0.37
reduction in risk of one or more adenomas (large bowel adenomas; 325 mg aspirin, non-significant): 4%
N with adenoma/N followed (large bowel adenomas; Advanced Lesion, 81 mg/day): 28/366
N with adenoma/N followed (percent) (large bowel adenomas; Advanced Lesion, 81 mg/day): (7.7%)
Relative Crude Risk (95% CI) (large bowel adenomas; Advanced Lesion, 81 mg/day): 0.59
Adjusted Relative Risk (95% CI) (large bowel adenomas; Advanced Lesion, 81 mg/day, adjusted): 0.58
N with adenoma/N followed (large bowel adenomas; Advanced Lesion, 325 mg/day): 38/355
N with adenoma/N followed (percent) (large bowel adenomas; Advanced Lesion, 325 mg/day): (10.7%)
Relative Crude Risk (95% CI) (large bowel adenomas; Advanced Lesion, 325 mg/day): 0.83
Adjusted Relative Risk (95% CI) (large bowel adenomas; Advanced Lesion, 325 mg/day, adjusted): 0.83
N with adenoma/N followed (large bowel adenomas; [2]): 66/721
N with adenoma/N followed (percent) (large bowel adenomas; [2]): (9.2%)
Relative Crude Risk (95% CI) (large bowel adenomas; [2]): 0.71
Adjusted Relative Risk (95% CI) (large bowel adenomas; Advanced Lesion, both aspirin groups combined, adjusted): 0.70
N with adenoma/N followed (large bowel adenomas; Any Adenoma, 81 mg/day): 140/366
N with adenoma/N followed (percent) (large bowel adenomas; Any Adenoma, 81 mg/day): (38.3%)
N with adenoma/N followed (percent) (large bowel adenomas; Any Adenoma, 81 mg/day, listed as aspirin): 38.3%
Relative Crude Risk (95% CI) (large bowel adenomas; Any Adenoma, 81 mg/day): 0.81
Adjusted Relative Risk (95% CI) (large bowel adenomas; Any Adenoma, 81 mg/day, adjusted): 0.83
N with adenoma/N followed (large bowel adenomas; Any Adenoma, 325 mg/day): 160/355
N with adenoma/N followed (percent) (large bowel adenomas; Any Adenoma, 325 mg/day): (45.1%)
N with adenoma/N followed (percent) (large bowel adenomas; Any Adenoma, 325 mg/day, listed as aspirin): 45.1%
Relative Crude Risk (95% CI) (large bowel adenomas; Any Adenoma, 325 mg/day): 0.96
Adjusted Relative Risk (95% CI) (large bowel adenomas; Any Adenoma, 325 mg/day, adjusted): 0.95
N with adenoma/N followed (percent) (large bowel adenomas; [3]): (41.6%)
N with adenoma/N followed (large bowel adenomas; Any Adenoma, both aspirin groups combined (81 and 325 mg/day)): 300/721
Relative Crude Risk (95% CI) (large bowel adenomas; [3]): 0.88
Adjusted Relative Risk (95% CI) (large bowel adenomas; Any Adenoma, both aspirin groups combined, adjusted for age, sex, clinical center, length of follow-up, baseline number of lifetime adenoma): 0.89
N with adenoma/N followed (large bowel adenomas; Tubular Adenoma, 81 mg/day): 121/366
N with adenoma/N followed (percent) (large bowel adenomas; Tubular Adenoma, 81 mg/day): (33.1%)
Relative Crude Risk (95% CI) (large bowel adenomas; Tubular Adenoma, 81 mg/day): 0.84
Adjusted Relative Risk (95% CI) (large bowel adenomas; Tubular Adenoma, 81 mg/day, adjusted): 0.87
N with adenoma/N followed (large bowel adenomas; Tubular Adenoma, 325 mg/day): 141/355
N with adenoma/N followed (percent) (large bowel adenomas; Tubular Adenoma, 325 mg/day): (39.7%)
Relative Crude Risk (95% CI) (large bowel adenomas; Tubular Adenoma, 325 mg/day): 1.01
Adjusted Relative Risk (95% CI) (large bowel adenomas; Tubular Adenoma, 325 mg/day, adjusted): 1.00
N with adenoma/N followed (large bowel adenomas; [4]): 262/721
N with adenoma/N followed (percent) (large bowel adenomas; [4]): (36.3%)
Relative Crude Risk (95% CI) (large bowel adenomas; [4]): 0.92
Adjusted Relative Risk (95% CI) (large bowel adenomas; Tubular Adenoma, both aspirin groups combined, adjusted): 0.93
reduction in risk of one or more adenomas (large bowel adenomas; both aspirin groups combined, non-significant): 12%
incidence of adenomas (large bowel adenomas; patients randomized to the aspirin groups): significantly lower
